Measurements as given in PubChem BioAssay (NCI).
Where “and” joins values, the source holds several entries; their conditions need not be identical. Equal entries are not always repeated.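 Each compound was tested at five concentrations against cells in 96-well plates for 48 hours. The concentration for 50% growth inhibition is given as GI50. TGI denotes the concentration required for complete inhibition of growth.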

Key:
Assay in all cases: growth of human tumour cells (NCI), 48 h
786-0 renal = system: 786-0 renal
HCT-116 colon = system: HCT-116 colon
IGROV1 ovarian = system: IGROV1 ovarian
KM12 colon = system: KM12 colon
MOLT-4 leukemia = system: MOLT-4 leukemia
OVCAR-4 ovarian = system: OVCAR-4 ovarian
RPMI-8226 leukemia = system: RPMI-8226 leukemia
SK-MEL-28 melanoma = system: SK-MEL-28 melanoma
SR leukemia = system: SR leukemia
UACC-62 melanoma = system: UACC-62 melanoma

Compound	GI50 (786-0 renal)	TGI (786-0 renal)	GI50 (HCT-116 colon)	TGI (HCT-116 colon)	GI50 (IGROV1 ovarian)	TGI (IGROV1 ovarian)	GI50 (KM12 colon)	TGI (KM12 colon)	GI50 (MOLT-4 leukemia)	TGI (MOLT-4 leukemia)	GI50 (OVCAR-4 ovarian)	TGI (OVCAR-4 ovarian)	GI50 (RPMI-8226 leukemia)	TGI (RPMI-8226 leukemia)	GI50 (SK-MEL-28 melanoma)	TGI (SK-MEL-28 melanoma)	GI50 (SR leukemia)	TGI (SR leukemia)	GI50 (UACC-62 melanoma)	TGI (UACC-62 melanoma)
CCc1ccc2c(c1)N(CCO)C1=C(C(=O)OC1)C2c1cc(OC)c(OC)c(OC)c1 (configuration not stated)	0.245 µM	> 14.5 µM	0.188 µM	1.77 µM	0.376 µM	> 50 µM	0.163 µM	0.987 µM	0.486 µM	> 50 µM	0.362 µM	> 50 µM	0.201 µM	42 µM	0.275 µM	> 50 µM	0.187 µM	> 50 µM	0.182 µM	> 50 µM
COc1ccc2c(c1OC)O/C(=C\c1ncc([N+](=O)[O-])n1C)C2=O	1.95 µM	5.17 µM	0.455 µM	3.68 µM	1.36 µM	9.46 µM	2.79 µM	10.3 µM	0.266 µM	–	5.95 µM	> 75.2 µM	3.07 µM	16.4 µM	0.623 µM	3.43 µM	0.103 µM	–	1.49 µM	3.36 µM
Cc1ccc(C2CC(c3ccc(Nc4ccnc5cc(Cl)ccc45)cc3)=NN2C=O)cc1 (configuration not stated)	50.9 µM	> 100 µM	25.2 µM	> 100 µM	26.6 µM	> 100 µM	6.64 µM	> 100 µM	5.13 µM	> 100 µM	5.15 µM	> 100 µM	2.18 µM	> 100 µM	> 100 µM	> 100 µM	3.18 µM	10.2 µM	4.13 µM	> 100 µM
COc1cc(NC2CCCCC2O)c2nc(-c3ccc(Cl)cc3)ccc2c1 (configuration not stated)	5.23 µM	18.6 µM	12.9 µM	> 100 µM	24.6 µM	> 100 µM	3.82 µM	29.2 µM	3 µM	46.6 µM	10.1 µM	> 100 µM	3.66 µM	25 µM	14.4 µM	> 100 µM	3.26 µM	32.8 µM	11.1 µM	40.6 µM
C#C[C@]1(O)CC[C@H]2[C@@H]3CC=C4c5nc(N)sc5CC[C@]4(C)[C@H]3CC[C@@]21C	2.06 µM	4.41 µM	3.91 µM	19.6 µM	4.83 µM	25.9 µM	3.49 µM	16.1 µM	2.18 µM	6.24 µM	13.2 µM	70.5 µM	1.57 µM	4.73 µM	1.9 µM	4.67 µM	2.31 µM	9.18 µM	2.05 µM	5.2 µM
CC(=O)Oc1cc2cnc3c4cc(OC(C)=O)c(OC(C)=O)cc4ccc3c2cc1OC(C)=O	2.99 µM	16.3 µM	0.471 µM	3.86 µM	1.01 µM	14 µM	2.47 µM	> 100 µM	0.812 µM	> 100 µM	1.35 µM	> 100 µM	1.66 µM	> 100 µM	3.15 µM	> 100 µM	0.629 µM	> 100 µM	0.979 µM	3.26 µM
CS(=O)(=O)Nc1cc(-c2ccc3ncnc(Nc4cccc(Cl)c4)c3c2)cnc1Cl	0.457 µM	7.01 µM	0.664 µM	5.87 µM	0.0784 µM	0.476 µM	1.03 µM	5.11 µM	0.235 µM	1.17 µM	0.828 µM	9.22 µM	0.378 µM	2.36 µM	0.3 µM	4.75 µM	0.371 µM	4.95 µM	0.202 µM	1.26 µM
CC1(C)N=C(N)N=C(N)N1c1cccc(CCc2ccccc2)c1	0.799 µM	> 100 µM	0.208 µM	> 100 µM	0.113 µM	17.6 µM	0.456 µM	14.6 µM	0.599 µM	> 89.2 µM	0.528 µM	79.5 µM	1.63 µM	> 58.6 µM	1.04 µM	> 68.9 µM	0.282 µM	> 64.3 µM	0.49 µM	20.4 µM
COc1cccc(-c2nc3sccn3c2-c2ccnc(NCCCNS(=O)(=O)c3ccccc3)c2)c1	6.03 µM	> 100 µM	3.32 µM	> 100 µM	3.14 µM	> 100 µM	2.97 µM	> 100 µM	2.25 µM	7.04 µM	2.87 µM	> 100 µM	1.61 µM	4.26 µM	3.59 µM	> 100 µM	3.57 µM	92.6 µM	1.98 µM	5.08 µM
COc1cc2ncnc(Oc3cccc(NC(=O)Nc4cc(C(C)(C)C(F)(F)F)on4)c3)c2cc1OC	2.58 µM and 4.44 µM	14.7 µM and > 10 µM	0.618 µM and 0.843 µM	11 µM and > 10 µM	0.565 µM and 0.634 µM	4.61 µM and 3.69 µM	3.4 µM and 5.28 µM	14 µM and > 10 µM	2.46 µM and 2.06 µM	> 29.7 µM	2.15 µM and 2.8 µM	> 100 µM	2.6 µM and 2.93 µM	11.3 µM and > 10 µM	0.179 µM and 0.201 µM	8.03 µM and 3.58 µM	2.95 µM and 2.6 µM	11.9 µM and > 10 µM	0.0628 µM and 0.0978 µM	1.59 µM and 1.34 µM
C[C@@H]1CCc2ncc(F)cc2[C@H]2CCCN2c2ccn3ncc(c3n2)C(=O)N1	63 µM	> 100 µM	> 100 µM	> 100 µM	34.6 µM	> 100 µM	–	> 100 µM	36.1 µM	> 100 µM	62.4 µM	> 100 µM	94.8 µM	> 100 µM	> 100 µM	> 100 µM	4.38 µM	> 100 µM	69.5 µM	> 100 µM
Cc1ccc(OC(=O)N2C/C(=C\c3ccccc3)C(=O)/C(=C/c3ccccc3)C2)cc1	–	35.9 µM	–	5.28 µM	–	> 95.5 µM	–	45.7 µM	–	18.5 µM	–	32.2 µM	–	1.9 µM	–	> 75 µM	–	13.2 µM	–	59 µM
O=C(O)c1ccccc1NCn1c(=S)sc2ccccc21	–	> 100 µM	–	> 100 µM	–	> 100 µM	–	> 100 µM	–	> 100 µM	–	> 100 µM	–	95.4 µM	–	> 100 µM	–	81.6 µM	–	> 100 µM
